Assay results published in patent US4376785A, “Cyclopropanecarboxylates and a low fish toxic insecticide and/or acaricide containing them” (priority 1980, dated 1983).
Like-named read-outs stand apart in the source and are kept apart here.

What was measured:
[1] = tested on: green rice leafhopper (Nephotettix cincticeps), R-strain; test: Insecticidal activity against green rice leafhopper, sprayed rice plants, Test example 1; format: in vivo; conditions: green rice leafhopper female adults, spray on rice plant, 26° C., 24 hours
Experimental: The emulsifiable concentrates of the present compounds and reference compounds prepared in Preparation example 1 were each formulated into test solutions having four different concentrations of active ingredient between 500 ppm and 0.5 ppm. Each test solution was sprayed on a rice plant in a 180-ml plastic cup which had elapsed one month after sowing, at a rate of 15 ml/2 cups by means of a turn table. After air-drying, the rice plate was covered with a wire-screen cage, and 15 female adults of green rice leafhopper (Nephotettix cincticeps) (a strain resistant to carbamates and organo-phosphates, hereinafter referred to as R-strain) were liberated therein. The plant was placed in an artificial climate chamber kept at 26° C. After 24 hours, the dead and alive were examined. The median lethal concentratin [LC50 (ppm)] was calculated from the mortality determined by 3 replications. […]

[2] = tested on: green rice leafhopper (Nephotettix cincticeps); test: Simulated paddy field box test, green rice leafhopper, Test example 6; format: in vivo; conditions: wettable powder, 100 ppm, 100 liter/10 are, after 48 hours
Experimental: (§1) The wettable powder of each of the present compounds (1), (3), (5), (6) and (11) prepared in Preparation example 4 was diluted with water so that the concentration of active ingredient was 100 ppm. Soil was placed in a plastic box [5 m×5 m×2 m (deep)] to a level of 50 cm from the bottom, and rice plants about 50 cm high were transplanted at invervals of 50 cm. Water was then placed in the box so that water depth was 5 cm, and 20 killifishes (Oryzias latipes) were liberated therein. Thereafter, the above dilute solution was sprayed on the box at a rate of 100 liter/10 are. The solution fell on the rice plants as well as on the water surface.
(§2) One hour after treatment, 100 female adults of green rice leafhopper (Nephotettix cincticeps) were liberated in the box which was immediately covered with a net.

[3] = Toxicity to killifish (TLm48), Test example 1; format: in vivo, Oryzias latipes; conditions: for selectivity ratio: in vivo, TLm48 divided by concentration in water at green rice leafhopper LC50, read-out: Safety coefficient to fishes (a)/(b); for LC50 at 48 h: water, killifish, medium tolerance limit, read-out: Toxicity to fishes TLm48 (a)
Experimental: (§3) Toxicity to killifish (Oryzias latipes) was tested accordig to the test method for toxicity to fishes described in Notification B No. 2735 of the Ministry of Agriculture and Forestry (Nov. 25, 1965). Namely, each of the present compounds (1), (2), (4), (5), (6), (8), (9), (11) and reference compounds was dissolved or suspended in "Tween 80" and diluted successively with dechlorinated tap water. Ten killifish (0.2-0.3 g per fish) were released in a 10-liter glass vessel containing 5 liters of each preparation.
(§4) In order to make it clearer that the present compounds have a low toxicity to fishes as well as a high insecticidal activity, a safety coefficient to fishes was calculated from the test results of toxicity to fishes and insecticidal activity. [formula]
(§5) A detailed explanation will be given to a method of how to calculate the safety coefficient. In the case of green rice leafhoppers, calculation was based on the concentration of active ingredient in water obtained by applying a test solution containing the active ingredient in an amount corresponding to LC50 (ppm) to a flooded paddy field 5 cm deep at a rate of 100 liter/10 are, provided that all the active ingredient applied entered the water.
(§6) For example, the safety coefficient to fishes of the present compound (1) is calculated as follows: The quantity of water in a flooded paddy field 5 cm deep and 10 are in area is 50 tons; when a test solution containing the active ingredient in an amount corresponding to LC50 (ppm) is added to the paddy field at a rate of 100 liter/10 are the concentration of the active ingredient in water (hereinafter referred to as (b)) is 0.008 pp; as the toxicity to fishes [TLm48 (ppm)] (hereinafter referred to as (a)) is >2.0 ppm, said coefficient can be calculated by dividing (a) by (b). In this case, the coefficient is >250, which means that the present compound (1) has a safety higher than 250-fold.

[4] = tested on: killifish (Oryzias latipes); test: Toxicity to killifish (TLm48), Test example 1; format: in vivo; conditions: killifish, medium tolerance limit, 48 hours
Experimental: as §3, §4, §5, §6

[5] = tested on: killifishes (Oryzias latipes); test: Simulated paddy field box test, killifish survival, Test example 6; format: in vivo; conditions: wettable powder, 100 ppm, 100 liter/10 are, water depth 5 cm, after 48 hours
Experimental: as §1, §2

[6] = tested on: carmine mites (Tetranychus cinnabarinus); test: Damage to rice plants by carmine mites, Test example 4; format: in vivo; conditions: 500 ppm spray, after 10 days
Experimental: The emulsifiable concentrate of each of the present compounds (3), (5), (9) and (11) prepared in Preparation example 1 was diluted with water so that the concentration of the active ingredient was 500 ppm. The dilute liquor was thoroughly sprayed on rice plants (grown in a 1/10,000 are Waner's pot) on which carmine mites (Tetranychus cinnabarinus) in all stages were made parasitic.

[7] = tested on: housefly (Musca domestica); test: Housefly mortality, treated filter paper with bait, Test example 7; format: in vivo; conditions: 0.7 ml on filter paper, housefly female adults, 48 hours
Experimental: The emulsifiable concentrate obtained in preparation Example 1 was diluted 200 times with water (corresponding to 500 ppm of the active ingredient). On the bottom a polyethylene cup of 5.5 cm in diameter was placed a piece of filter paper of the same size, and 0.7 ml of the above dilute liquor was dropped on the filter paper. Sucrose (30 mg) was placed on the paper as bait. Thereafter, 10 housefly female adults (Musca domestica) were liberated in the cup which was then covered with a lid. After 48 hours, the dead and alive were counted to obtain mortality (4 replications).

[8] = tested on: CSMA strain housefly (Musca domestica); test: Topical application to housefly adults, Test example 8; format: in vivo; conditions: topical to ventral thorax, 0.5 μl/adult, female adults, 24 hours
Experimental: The present compounds as below and reference compounds were each diluted with acetone into test solutions having four different concentrations of active ingredient. Each test solution was topically applied to the ventral throrax of CSMA strain housefly female adults (Musca domestica), at a rate of 0.5 μl/adult by means of a microapplicator.
The adults were then liberated in a polyethylene cup and fed with milk, sugar and water. After 24 hours, the dead and alive were observed. The median lethal dosage (LD50 μg/adult) was obtained from the morality (3 replications).

[9] = tested on: yellow fever mosquito (Aedes aegypti); format: in vivo; conditions: 50 mg of granules (Preparation example 6) in 100 ml water, full grown larvae, after 24 hours
Experimental: Fifty milligrams of each of the granules of the present compounds (5) and (11) obtained in Preparation example 6 was placed in a 100-ml beaker containing 100 ml of distilled water, and 30 full grown larvae of yellow fever mosquito (Aedes aegypti) were liberated therein. After 24 hours, 100% of the larvae could be killed.

[10] = tested on: green rice leafhopper (Nephotettix cincticeps); test: Residual effect test, Text example 5; format: in vivo; conditions: 20 cc per pot, 24 hours
Experimental: The emulsifiable concentrate of each of the present compounds (5) and (11) prepared in Preparation example 1 was diluted with water so that the conentration of active ingredient was 400 ppm. Thereafter, 20 cc of the dilute solution was sprayed on rice plants grown in a 1/10,000 are Wagner's pot. The rice plants were air-dried and covered with a wire-screen cage, and 15 female adults of green rice leafhopper (Nephotettix cincticeps) were liberated therein. After 24 hours, the dead and alive were examined to obtain mortality. In order to examine the residual effect, the pot was then left as it was for 7 days, and the test insects were liberated in the same manner as above. After 24 hours, the mortality was examined. The experiment was carried out in a greenhouse and the number of replications was three.

Row | Compound | LC50 [1] [ppm] | green rice leafhoppers alive [2] | selectivity ratio [3] | LC50 at 48 h [3] [µg/mL] | Toxicity to fishes TLm48 (a) [4] [ppm] | killifishes alive [5] | damage to rice plants by carmine mites [6] | mortality at 500 ppm [7] [%] | LD50 [8] [μg/adult] | larvae killed [9] [%] | mortality at 400 ppm ([10]; insects liberated 7 days after treatment, read-out: Mortality, effect 7 days after treatment) [%] | mortality at 400 ppm ([10]; read-out: Mortality, effect immediately after treatment) [%]
1 | CC1(C)[C@H](C(=O)OC(C#N)c2ccc(F)c(Oc3ccc(Br)cc3)c2)[C@H]1C(Br)C(Cl)(Cl)Br (relative stereo) [compound (1), 3-(4-Bromophenoxy)-4-fluoro-α-cyanobenzyl dl-trans-2,2-dimethyl-3-(1,2-dibromo-2,2-dichloroethyl)cyclopropanecarboxylate] | 3.8 | no alive green rice leafhoppers were found | > 250 | > 2 | > 2.0 | all of the killifishes were alive |  |  |  |  |  | 
2 | CC1(C)C(C(=O)OC(C#N)c2ccc(F)c(Oc3ccc(Cl)cc3)c2)C1C(Br)C(Cl)(Cl)Br (stereo not drawn) [compound (5), 3-(4-Chlorophenoxy)-4-fluoro-α-cyanobenzyl 2,2-dimethyl-3-(1,2-dibromo-2,2-dichloroethyl)cyclopropanecarboxylate] | 4.8 | no alive green rice leafhoppers were found | > 100 | > 1 |  | all of the killifishes were alive | the spreading of the damage could be prevented | 100 | 0.033 | 100 | 100 | 100
